From patent publication US11360104B2, “Microbial-based biosensors” (TRUSTEES OF BOSTON UNIVERSITY, priority 2017, dated 2022)

What was measured:
[1] = tested on: steroid responsive genome island (SRGI); experiment: Whole transcriptome RNA-Seq of steroid treated P. simplex; format: cell-based, Pimelobacter simplex; conditions: P. simplex exposed to steroid vs solvent control, Log2 fold change
Description: (§1) In order to identify steroid binding Transcription Factors, a whole transcriptome RNA sequencing (RNA-Seq) screen was developed (FIG. 7). The growth of Pimelobacter simplex bacteria was profiled with respect to the starting inoculation density, solvent toxicity, and the addition of steroids (FIG. 16). […] P. simplex bacteria were screened against the steroid solvents ethanol (EtOH) and dimethyl sulfoxide (DMSO). […] Steroid growth curves were similarly performed using a starting OD of 0.005 and constant solvent dosing with titrations of steroids. […] P. simplex bacteria were grown in the presence of 700 μM testosterone, 21.88 μM progesterone, 87.50 μM estrone, 21.88 μM 17β-estradiol, 21.88 μM hydrocortisone, or 175.00 μM aldosterone concentrations were selected for comparison.
(§2) Using accession gene tags, genes were annotated for steroid relevant enzymes or transcription factors. […] Allosteric TF binding sequences are often palindromes and typically located near the start of its gene location in an intergenic space. With such a design, the allosteric TF can regulate itself or the open reading frame (ORF) near it in response to its effector molecule. […] Once identified, the TFs were cloned and recombinantly expressed for thorough characterization.
(§3) Cells were grown in 6 mL volumes of media at the OD, solvent, and steroid concentrations found from the growth curves in 14 mL polypropylene round-bottom tubes (Corning #352059) in technical duplicate. The same controls as in the steroid exposure growth curve were used for setting up RNA extraction samples. The cells were incubated at their corresponding temperature with continuous orbital shaking at 150 rpm until the end of lag-phase, mid-log phase, or stationary phase from the start of inoculation. Afterward, samples were removed and a 1:1 ratio of RNAprotect Bacteria Reagent (Qiagen #76506) was added followed by spinning down at 4° C. for 10 minutes at 4000 g. Supernatant was removed and the pellet re-suspended in 300 μL of RNAprotect and transferred into 2.0 mL Safe-Lock Tubes (Eppendorf #3101). The samples were then spun down once again at 4° C. for 10 minutes at 10000 g. Once the supernatant has been removed the samples were placed on ice and ready for RNA extraction. RNA extraction was done by Qiacube (Qiagen #9001292) set to the RNeasy Protect Bacteria Mini Kit protocol of bacterial cell pellet with enzymatic lysis. Tube A was prepared as described except with the addition of 150 mg/mL lysozyme (Sigma-Aldrich #L6876) and 20 mg/mL proteinase K (Roche #03115879001) all diluted in 1xTE buffer. RNA samples were subsequently quantified using Qubit RNA HS Assay Kit (Thermo Fisher Scientific #Q32852) and analyzed using a RNA 6000 Pico Kit (Agilent 5067-1513) in a 2100 Bioanalyzer (Agilent G2939A). RNA samples were either immediately used for RNA-Seq library preparation or stored long-term at −80° C.
(§4) RNA-Seq libraries were then produced from these samples using a slightly modified ScriptSeq v2 RNA-Seq Library Preparation Kit (Illumina 455A/22124) ensuring use of unique index primers through ScriptSeq Index PCR Primers (Sets 1-4) 48 rxns/set (Illumina #SSIP1234).

[2] = tested on: P. simplex bacteria (steroid responsive genome island, SRGI); experiment: RNA-Seq screen of steroid treated P. simplex against solvent controls; format: cell-based, Pimelobacter simplex; conditions: Log2 fold change vs solvent control
Description: as §1, §2, §3, §4

Pimelobacter simplex = experiment: Solvent and steroid exposure growth curves; conditions: P. simplex, starting OD 0.005, constant solvent
PinR = PinR (Nocardioides simplex (Pimelobacter simplex), UniProt A0A0A1DUF2); experiment: Cross-reactivity assay of steroids using sensor 3; format: biochemical
Sequence of PinR (A0A0A1DUF2 entry or part of it): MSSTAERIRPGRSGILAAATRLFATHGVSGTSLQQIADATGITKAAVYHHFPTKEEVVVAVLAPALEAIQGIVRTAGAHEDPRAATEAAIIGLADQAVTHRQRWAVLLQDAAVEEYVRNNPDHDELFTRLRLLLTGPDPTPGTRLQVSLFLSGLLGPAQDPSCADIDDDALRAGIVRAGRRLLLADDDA
Description: The cross-reactivity of progesterone regarding the different steroids was calculated with the following equation:
Description for a typical experiment, using a molar ratio of QD/TF/DNA=1/4/18.
50 uL of the sensor (QD/TF/DNA) was then splitted in 3×9 centrifuge tubes to which 10 uL of progesterone at the desired concentration is added. […] A 384 well plate was filled with 60 uL of each solution. The fluorescence intensity was monitored on a spectrofluorimeter from 535 nm to 800 nm exciting at 400 nm, equipped with a 450 nm long-pass filter in emission.

CC(=O)[C@H]1CC[C@H]2[C@@H]3CCC4=CC(=O)CC[C@]4(C)[C@H]3CC[C@]12C [PRG, Progesterone]
upregulation of genes inside the SRGI [1]: observed
upregulation of genes inside the SRGI (in words) [2]: upregulation of genes inside the SRGI were observed
highest steroid concentration exhibiting normal growth profile (Pimelobacter simplex): 21.88 µM
IC50 (PinR): 59 ± 4 nM
P (slope of fit) (PinR; sensor 3, HEPES 1×): 1.31 ± 0.10
